Measurements taken from patent US6214834A, “Integrin inhibitor prodrugs” (Dupont Pharmaceuticals Company, priority 1998, dated 2001).
“And” between values parts separate entries of the source, which are not always exact repeats. Equal entries are not always repeated. Where two headings read alike, the source gives them in different places.

Key:
[1] = Free solution electrophoretic mobility by capillary electrophoresis; assay type: physicochemical; settings: for Electrophoretic Mobility: 400 V/cm, 25° C.
Description: To obtain a preliminary indication of the feasibility of transdermal iontophoretic delivery and the possible dependence on pH, the solution mobilities of the methyl and choline esters were evaluated using capillary electrophoresis. Free solution mobilities were determined using a capillary electrophoresis instrument equipped with a u.v. detector and a cationic amine capillary column of 57 cm total length, 50 cm length to detector, 370 μm o.d.,50 μm i.d. Buffers used were pH 4.5 acetate, pH 6.0 MES and pH 8.0 TRIS. All buffer concentrations were 50 mM. Elution was at 400 V/cm and 25° C., and detection was at 214 nm. Compounds SM192 and SD209 were examined. Structures are given in Scheme 16. For each compound, 2 mg/mL stock solutions were prepared and diluted 1:1 with the running buffer. Therefore, electrophoretic mobility of compound SD209 is about two-fold higher than that of compound SM192 at all pH values examined.

[2] = Surface tension measurements (DuNouy tensiometer); assay type: physicochemical; settings: for Surface Tension: pH ~4, 22° C.
Description: Surface activity behavior of the two prodrugs, SM192 and SD209 was examined using tensiometry. Stock solutions of each were prepared at a concentration of 0.06 M in water and dilutions were made using an aqueous solution of the corresponding salt counterion of the prodrug adjusted to a pH ~4. Surface tension measurements were run at 22° C. on a DuNouy tensiometer. Three measurements were run on each solution concentration.

[3] = Partition coefficient estimated by HPLC method; assay type: physicochemical; settings: estimated using an HPLC method; read-out: HPLC Log P
[4] = Plasma concentrations after i.v. bolus of SD209 in pigs (in vivo conversion of prodrug); set-up: species or system Yorkshire domestic swine
Description: Data indicating conversion of the prodrug SD209 to the drug, SM256 once administered into circulation in vivo is represented in Table 5. The data in Table 5 id generated from intravenous administration of the prodrug, SD209, in pigs.
SD209 was injected intravenously at a dose of 0.5 mg/kg and plasma was seperated after blood sampling at different intervals. Following solid phase extraction of the plasma, residues were chromatographed on a supelcosil ABZ HPLC column and detected by positive ion electrospray MS/MS using a Sciex API 300. This combination provides a specific assay for both SD209 and SM256. The linear range of the assay for SM256 was from 1 ng/ml to 2000 ng/ml. Plasma concentration data for both pigs are provided below

[5] = pig 1, Time 10.0 hr, i.v. bolus 0.5 mg/kg of SD209
[6] = pig 1, Time 14.0 hr, i.v. bolus 0.5 mg/kg of SD209
[7] = pig 1, Time 24.0 hr, i.v. bolus 0.5 mg/kg of SD209
[8] = pig 2, Time 7.0 hr, i.v. bolus 0.5 mg/kg of SD209
[9] = pig 2, Time 10.0 hr, i.v. bolus 0.5 mg/kg of SD209
[10] = pig 2, Time 14.0 hr, i.v. bolus 0.5 mg/kg of SD209
[11] = pig 2, Time 24.0 hr, i.v. bolus 0.5 mg/kg of SD209

Electrophoretic Mobility ([1]; pH 4.5 acetate buffer 50 mM)	Electrophoretic Mobility ([1]; pH 6.0 MES buffer 50 mM)	Electrophoretic Mobility ([1]; pH 8.0 TRIS buffer 50 mM)	Surface Tension ([2]; Concentration 0.0015 M) [dynes/cm]	Surface Tension ([2]; Concentration 0.003 M) [dynes/cm]	Surface Tension ([2]; Concentration 0.010 M) [dynes/cm]	Surface Tension ([2]; Concentration 0.015 M) [dynes/cm]	Surface Tension ([2]; Concentration 0.030 M) [dynes/cm]	Surface Tension ([2]; Concentration 0.045 M) [dynes/cm]	Surface Tension ([2]; Concentration 0.054 M) [dynes/cm]	Surface Tension ([2]; Concentration 0.06 M) [dynes/cm]	chromatographic logP [3]	plasma conc. [4, 5]	plasma conc. [4, 6]	plasma conc. [4, 7]	plasma conc. [4, 8]	plasma conc. [4, 9]	plasma conc. [4, 10]	plasma conc. [4, 11]	Structure (SMILES)	other results
1.7 (cm^2 /v/sec) × 10^-4	1.6 (cm^2 /v/sec) × 10^-4	1.1 (cm^2 /v/sec) × 10^-4	69.1 ± 0.6	61.7 ± 0.2	53.5 ± 0.3	51.5 ± 0.1	50.4 ± 0.2	49.8 ± 0.4	50.0 ± 0.6	49.5 ± 0.3	3.73								COC(=O)C(CNC(=O)c1ccc2c(cnn2CCCNc2ncc[nH]2)c1)NS(=O)(=O)c1c(C)cc(C)cc1C (centres unmarked) [SM192]	Surface Tension ([2]; Concentration 0.00015 M): 73.0 ± 0.2 dynes/cm; Surface Tension ([2]; Concentration 0.0003 M): 73.0 ± 0.2 dynes/cm; Surface Tension ([2]; Concentration 0.0006 M): 72.3 ± 0.1 dynes/cm; Surface Tension ([2]; Concentration 0.001 M): 69.3 ± 0.6 dynes/cm; Surface Tension ([2]; Concentration 0.006 M): 56.9 ± 0.4 dynes/cm; critical micelle concentration (CMC) ([2]; from surface tension vs concentration): ~ 16 mM and ~ 11 mg/mL
												BQL	BQL	BQL	BQL	BQL	BQL	BQL	Cc1cc(C)c(S(=O)(=O)NC(CNC(=O)c2ccc3c(cnn3CCCNc3ncc[nH]3)c2)C(=O)O)c(C)c1 (centres unmarked) [SM256]	
3.2 (cm^2 /v/sec) × 10^-4	3.0 (cm^2 /v/sec) × 10^-4	2.3 (cm^2 /v/sec) × 10^-4	72.6 ± 0.06	72.4 ± 0.06	72.2 ± 0.2	67.4 ± 0.6	65.5 ± 0.5	61.9 ± 0.4	63.7 ± 0.4	61.2 ± 0.3	0.95	BQL	BQL	BQL	BQL	BQL	BQL	BQL	Cc1cc(C)c(S(=O)(=O)NC(CNC(=O)c2ccc3c(cnn3CCCNc3ncc[nH]3)c2)C(=O)OCC[N+](C)(C)C)c(C)c1 (centres unmarked) [SD209]	electrophoretic mobility relative to compound SM192 ([1]; higher than SM192 at all pH values examined): about two-fold; critical micelle concentration (not attained up to) ([2]; no CMC attained even at the highest concentrations): > 0.6 M; plasma conc. ([4]; pig 1, Time 1.0 hr, i.v. bolus 0.5 mg/kg of SD209): BQL; plasma conc. ([4]; pig 1, Time 3.0 hr, i.v. bolus 0.5 mg/kg of SD209): BQL; plasma conc. ([4]; pig 1, Time 5.0 hr, i.v. bolus 0.5 mg/kg of SD209): BQL; plasma conc. ([4]; pig 1, Time 7.0 hr, i.v. bolus 0.5 mg/kg of SD209): BQL; plasma conc. ([4]; pig 2, Time 1.0 hr, i.v. bolus 0.5 mg/kg of SD209): BQL; plasma conc. ([4]; pig 2, Time 2.0 hr, i.v. bolus 0.5 mg/kg of SD209): BQL; plasma conc. ([4]; pig 2, Time 3.0 hr, i.v. bolus 0.5 mg/kg of SD209): BQL; plasma conc. ([4]; pig 2, Time 5.0 hr, i.v. bolus 0.5 mg/kg of SD209): BQL; concentration at 0 h ([4]; pig, plasma, iv, 0.5 mg/kg, pig 1, Time 0.00 hr, i.v. bolus 0.5 mg/kg of SD209, read-out: plasma conc.): < 0.002 µg/mL; concentration at 0.1 h ([4]; pig, plasma, iv, 0.5 mg/kg, pig 1, Time 0.1 hr, i.v. bolus 0.5 mg/kg of SD209, read-out: plasma conc.): 0.06 µg/mL; concentration at 0.25 h ([4]; pig, plasma, iv, 0.5 mg/kg, pig 1, Time 0.25 hr, i.v. bolus 0.5 mg/kg of SD209, read-out: plasma conc.): 0.02 µg/mL; concentration at 0 h ([4]; pig, plasma, iv, 0.5 mg/kg, pig 2, Time 0.00 hr, i.v. bolus 0.5 mg/kg of SD209, read-out: plasma conc.): < 0.002 µg/mL; concentration at 0.1 h ([4]; pig, plasma, iv, 0.5 mg/kg, pig 2, Time 0.1 hr, i.v. bolus 0.5 mg/kg of SD209, read-out: plasma conc.): 0.02 µg/mL; concentration at 0.25 h ([4]; pig, plasma, iv, 0.5 mg/kg, pig 2, Time 0.25 hr, i.v. bolus 0.5 mg/kg of SD209, read-out: plasma conc.): 0.003 µg/mL; concentration at 0.5 h ([4]; pig, plasma, iv, 0.5 mg/kg, pig 2, Time 0.5 hr, i.v. bolus 0.5 mg/kg of SD209, read-out: plasma conc.): < 0.002 µg/mL; in vivo conversion of prodrug to SM256 in the circulation ([4]; pigs, i.v. 0.5 mg/kg): quantitatively converted to SM256
